Data taken from patent publication US8691761B2, “Somatostatin receptor 2 antagonists” (priority 2006, dated 2014).
“And” between values parts separate entries of the source, which are not always exact repeats. Equal values may be shown once. “Also recorded” adds a separate entry of the source. Read-outs that look alike come from different tables or passages of the source. Values belong to the compound of their own block, whether it stands above or below them. Bridge positions count the residues as written; N and C are the ends. Square brackets hold non-standard residues; d marks the D form. Peptide text beside a SMILES is read from it. * marks the point of attachment. ξ: configuration not given here. DOTA = O=C(O)CN1CCN(CC(=O)O)CCN(CC(=O)*)CCN(CC(=O)O)CC1; dPhe(4-NHCONH2) = NC(=O)Nc1ccc(C[C@@H](N)C(=O)O)cc1; Phe(4-NHCONH2) = NC(=O)Nc1ccc(C[C@H](N)C(=O)O)cc1; dTrp(5-F) = N[C@H](Cc1c[nH]c2ccc(F)cc12)C(=O)O; Phe(4-Cl) = N[C@@H](Cc1ccc(Cl)cc1)C(=O)O; ξDihydroorotoyl = O=C1CC(C(=O)*)NC(=O)N1; 2Nal = N[C@@H](Cc1ccc2ccccc2c1)C(=O)O; ξPhe(4-NH2) = Nc1ccc(CC(N)C(=O)O)cc1

How the values were obtained:
[1] = molecular target: T1, human sst2A receptor (Homo sapiens, UniProt P30874); assay: Immunofluorescence-based sst2 internalization assay in HEK-sst2 cells; assay type: cell-based; conditions: n ≧ 2
T1 construct: expressed in transfected cells; host or cells: HEK293 (HEK-sst2)
Protocol: Immunofluorescence-based sst2 Internalization Assay. Immunofluorescence microscopy-based internalization assay for sst2 was performed with HEK-sst2 using the sst2-specific antibody R2-88 as described elsewhere herein. HEK-sst2 cells were treated either with vehicle alone, the sst2 agonist [Tyr^3]-octreotide at a concentration of 100 nM, [Tyr^3]-octreotide at a concentration of 100 nM in the presence of an excess of the SRIF analogues to be tested (100 times the concentration of [Tyr^3]-octreotide), or with the SRIF analogues to be tested alone at a concentration of 10 μM, and then processed for immunofluorescence microscopy as described previously.

[2] = molecular target: sst2 (Homo sapiens, UniProt P30874); assay: Calcium release assay in HEK-sst2 cells (Fluo-4NW); assay type: cell-based; set-up: expressed in transfected cells; host or cells: HEK293 (HEK-sst2); conditions: n ≧ 2
Protocol: Calcium release assay. Intracellular calcium release was measured in HEK-sst2 using the Fluo-4NW Calcium Assay kit as described previously (Magrys, et al. “The role of anti-alpha-enolase autoantibodies in pathogenicity of autoimmune-mediated retinopathy.” J. Clin. Immunol. 2007, 27, 181-192; Michel et al. “The Nef protein of human immunodeficiency virus is a broad-spectrum modulator of chemokine receptor cell surface levels that acts independently of classical motifs for receptor endocytosis and Galphai signaling.” Mol. Biol. Cell. 2006, 17, 3578-3590). In brief, HEK-sst2 cells were seeded (25,000 cells per well) in poly-D-lysine (20 μg/mL) coated 96 well plates and cultured for 1 day at 37° C. and 5% CO2 in culture medium. At the day of the experiment, the cells were washed with assay buffer (1×HBSS, 20 mM HEPES) containing 2.5 mM probenecid, and then loaded with 100 μL/well Fluo-4NW dye in assay buffer containing 2.5 mM probenecid for 30 min at 37° C. and 5% CO2 and then for further 30 min at room temperature. To measure the intracellular calcium mobilization after stimulation with the SRIF analogues to be tested, the dye-loaded cells were transferred to a SpectraMax M2^e (Molecular Devices, Sunnyvale, Calif.). Intracellular calcium mobilization was recorded in a kinetic for 60 sec at room temperature monitoring fluorescence emission at 520 nm (with λex=485 nm) in the presence of the analogues at the concentrations indicated. Maximum fluorescence (Fmax) was measured after the addition of 25 μM ionomycin. Baseline (control) measurements were taken for dye-loaded, untreated cells. Data are shown as percentage of Fmax (% Fmax) as reported previously. (Magrys, et al. J. Clin. Immunol. 2007, 27, 181-192; Michel et al. Mol. Biol. Cell. 2006, 17, 3578-3590). All experiments were repeated at least three times in triplicate.

[3] = molecular target: T2, hSSTR2 (Homo sapiens, UniProt P30874); assay: Receptor autoradiography, displacement of 125I-[Leu8,D-Trp22,Tyr25]-SRIF-28 from membrane pellet sections; assay type: binding
T2 construct: expressed in transfected cells; host or cells: CHO-K1 or CCL39 cells
Protocol: (§1) Generally, recombinant cells expressing the receptor are washed and homogenized to prepare a crude protein homogenate in a suitable buffer. In a typical assay, an amount of protein from the cell homogenate is placed into a small volume of an appropriate assay buffer at an appropriate pH. Candidate substances, such as potential SRIF agonists and antagonists, are added to the admixture in convenient concentrations, and the interaction between the candidate substance and the receptor polypeptide is monitored.
(§2) In vitro Bioassay: The effects of the various somatostatin analogs were tested in vitro for their ability to bind to isolated cloned receptors expressed on CHO-K1 cells and CCL39 cells. The molecular cloning of the genes encoding multiple somatostatin receptor subtypes permitted the individual expression of these receptors in mammalian cells and the characterization of their respective pharmacological profiles.
(§3) CHO-K1 cells were grown in Ham's F-12 medium, and CCL39 cells were grown in Dulbecco's modified Eagle's medium/Ham's F-12(1:1) mix, supplemented with 10% fetal bovine serum, 100 U/ml penicillin and 100 μg/ml streptomycin, in humidified air containing 5% CO2 at 37° C. Cells were washed twice with and scraped into ice-cold 0.05 M Tris-HCl (pH 7.4), collected by centrifugation, and homogenized using a rotor/stator/system in the same buffer. After centrifugation at 120 g for 5 min at 4° C., the supernatant was collected and centrifuged again at 48,000 g for 30 min at 4° C. The resulting pellet was resuspended in ice-cold Tris buffer, transferred into a microfuge tube, and centrifuged at 20,000 g for 15 min at 4° C. After withdrawal of the supernatant, the membrane pellet was stored at −80° C.
(§4) Receptor autoradiography was performed on 20 μm thick cryostat sections of the membrane pellets, mounted on microscope slides, and then stored at −20° C. […] Increasing concentrations of the unlabeled peptide were used ranging from 0.1-1000 nM. […] IC50 values were calculated after quantification of the data using a computer-assisted image processing system as known in this art.
(§5) The numbers in parentheses indicate the number of times the particular binding test was carried out.
(§6) Receptor autoradiography. Cell membrane pellets were prepared as previously described, and stored at −80° C. Receptor autoradiography was performed on 20-μm thick cryostat (Microm HM 500, Walldorf, Germany) sections of the membrane pellets, mounted on microscope slides, and then stored at −20° C. […] After a brief dip in distilled water to remove excess salts, the sections were dried quickly and exposed for 1 week to Kodak BioMax MR film. IC50 values were calculated after quantification of the data using a computer-assisted image processing system as described previously. […] (Reubi, J. C. “In vitro identification of vasoactive intestinal peptide receptors in human tumors: Implications for tumor imaging.” J. Nucl. Med. 1995, 36, 1846-1853).
(§7) To investigate their ssts binding properties, the peptides were tested for their ability to bind to cryostat sections from membrane pellets of cells expressing the five human ssts (Table 3).

[4] = molecular target: T3, hSSTR5 (Homo sapiens, UniProt P35346); assay: as above; assay type: binding; conditions: for IC50: Table 3, mean ± SEM when N ≧ 3, read-out: sst5 binding affinity (IC50)
T3 construct: expressed in transfected cells; host or cells: CHO-K1 or CCL39 cells
Protocol: as §1, §2, §3, §4, §5, §6, §7

[5] = molecular target: T4, hSSTR4 (Homo sapiens, UniProt P31391); assay: as above; assay type: binding; conditions: for IC50: Table 3, mean ± SEM when N ≧ 3, read-out: sst4 binding affinity (IC50)
T4 construct: expressed in transfected cells; host or cells: CHO-K1 or CCL39 cells
Protocol: as §1, §2, §3, §4, §5, §6, §7

[6] = molecular target: T5, hSSTR3 (Homo sapiens, UniProt P32745); assay: as above; assay type: binding; conditions: for IC50: Table 3, mean ± SEM when N ≧ 3, read-out: sst3 binding affinity (IC50)
T5 construct: expressed in transfected cells; host or cells: CHO-K1 or CCL39 cells
Protocol: as §1, §2, §3, §4, §5, §6, §7

[7] = molecular target: T6, hSSTR1 (Homo sapiens, UniProt P30872); assay: as above; assay type: binding; conditions: for IC50: Table 3, mean ± SEM when N ≧ 3, read-out: sst1 binding affinity (IC50)
T6 construct: expressed in transfected cells; host or cells: CHO-K1 or CCL39 cells
Protocol: as §1, §2, §3, §4, §5, §6, §7

[8] = system: HEK-sst2 tumors; conditions: mouse, in vivo
Protocol: (§8) The following protocol was used to determine biodistribution
(§9) Confirmation that the transfected tumors were indeed expressing solely sst2 was obtained in resected tumor samples tested in vitro with somatostatin receptor autoradiography using subtype selective ligands.
(§10) The biodistribution of was studied at 4 h or 24 h after injection. The organs of interest were collected, blotted dry, weighed, their radioactivity measured and the percentage of injected activity per gram (% IA/g) calculated.

[9] = in vivo; conditions: female, athymic nude, mouse, iv, total radioactivity, biodistribution
Protocol: as §8, §9, §10

[10] = Table 3, mean ± SEM when N ≧ 3, read-out: sst2 binding affinity (IC50)

T2 sequence (P30874 whole entry): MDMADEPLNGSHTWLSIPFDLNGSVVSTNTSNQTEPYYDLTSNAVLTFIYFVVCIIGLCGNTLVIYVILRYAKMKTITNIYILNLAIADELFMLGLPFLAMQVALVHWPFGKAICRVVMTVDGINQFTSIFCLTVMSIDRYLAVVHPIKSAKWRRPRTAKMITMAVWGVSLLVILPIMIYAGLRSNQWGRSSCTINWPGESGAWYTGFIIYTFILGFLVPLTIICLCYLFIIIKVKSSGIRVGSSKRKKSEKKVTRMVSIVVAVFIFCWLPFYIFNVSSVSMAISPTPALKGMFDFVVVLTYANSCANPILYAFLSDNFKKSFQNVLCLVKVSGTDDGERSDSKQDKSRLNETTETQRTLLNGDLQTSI
Chain of sst2 (P30874 whole entry): as above
T1 sequence (P30874 whole entry): as above
T3 sequence (P35346 whole entry): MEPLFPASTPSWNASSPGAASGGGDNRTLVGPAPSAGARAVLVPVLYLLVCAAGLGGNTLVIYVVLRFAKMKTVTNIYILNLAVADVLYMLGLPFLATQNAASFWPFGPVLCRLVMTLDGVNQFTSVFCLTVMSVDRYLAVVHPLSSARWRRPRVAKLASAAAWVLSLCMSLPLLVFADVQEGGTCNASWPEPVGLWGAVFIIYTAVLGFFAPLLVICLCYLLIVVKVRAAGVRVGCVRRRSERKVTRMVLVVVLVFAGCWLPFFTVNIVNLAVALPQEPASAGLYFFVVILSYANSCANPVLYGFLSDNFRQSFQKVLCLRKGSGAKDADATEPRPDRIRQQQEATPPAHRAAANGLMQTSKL
T5 sequence (P32745 whole entry): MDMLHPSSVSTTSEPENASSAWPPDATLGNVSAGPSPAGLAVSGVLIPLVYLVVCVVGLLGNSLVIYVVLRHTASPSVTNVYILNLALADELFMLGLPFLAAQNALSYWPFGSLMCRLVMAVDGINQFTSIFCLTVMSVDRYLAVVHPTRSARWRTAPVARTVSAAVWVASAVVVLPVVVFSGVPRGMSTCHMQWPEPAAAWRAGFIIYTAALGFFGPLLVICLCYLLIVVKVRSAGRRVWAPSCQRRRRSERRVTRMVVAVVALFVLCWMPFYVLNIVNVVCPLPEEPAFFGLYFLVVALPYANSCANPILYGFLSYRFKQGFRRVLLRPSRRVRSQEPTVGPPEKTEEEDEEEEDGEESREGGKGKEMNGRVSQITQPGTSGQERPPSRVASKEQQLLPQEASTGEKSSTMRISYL
T4 sequence (P31391 whole entry): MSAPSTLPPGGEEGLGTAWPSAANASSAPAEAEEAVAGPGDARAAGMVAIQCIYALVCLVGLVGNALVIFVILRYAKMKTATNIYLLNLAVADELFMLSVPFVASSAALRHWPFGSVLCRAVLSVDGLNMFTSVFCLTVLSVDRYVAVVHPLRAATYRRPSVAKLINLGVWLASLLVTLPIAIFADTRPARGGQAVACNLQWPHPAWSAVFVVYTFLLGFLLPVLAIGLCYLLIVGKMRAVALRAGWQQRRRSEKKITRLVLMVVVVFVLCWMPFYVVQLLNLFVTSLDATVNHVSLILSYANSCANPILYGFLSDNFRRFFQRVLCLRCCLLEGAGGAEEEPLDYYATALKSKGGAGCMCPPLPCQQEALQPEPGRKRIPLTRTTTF
T6 sequence (P30872 whole entry): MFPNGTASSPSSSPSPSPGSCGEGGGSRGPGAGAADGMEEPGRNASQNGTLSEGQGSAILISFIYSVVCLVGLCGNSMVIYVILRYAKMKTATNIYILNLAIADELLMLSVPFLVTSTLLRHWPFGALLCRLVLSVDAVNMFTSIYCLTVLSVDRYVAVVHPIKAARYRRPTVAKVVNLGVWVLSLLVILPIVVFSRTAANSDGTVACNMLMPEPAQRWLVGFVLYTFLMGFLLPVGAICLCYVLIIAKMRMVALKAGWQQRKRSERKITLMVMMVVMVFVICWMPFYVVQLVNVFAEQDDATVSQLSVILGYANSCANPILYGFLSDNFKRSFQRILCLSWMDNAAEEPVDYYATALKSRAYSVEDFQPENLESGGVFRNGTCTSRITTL

Structure (SMILES): C[C@@H](O)[C@@H]1NC(=O)[C@H](CCCCN)NC(=O)[C@@H](Cc2ccc(NC(N)=O)cc2)NC(=O)C(Cc2ccc(NC(=O)C3CC(=O)NC(=O)N3)cc2)NC(=O)[C@H](NC(=O)[C@H](Cc2ccc(Cl)cc2)NC(=O)CN2CCN(CC(=O)O)CCN(CC(=O)O)CCN(CC(=O)O)CC2)CSSC[C@@H](C(=O)N[C@H](Cc2ccc(O)cc2)C(N)=O)NC1=O (stereo partly drawn) [Peptide No. 31, DOTA-Cpa-c[DCys-Aph(Hor)-DAph(Cbm)-Lys-Thr-Cys]-DTyr-NH2] ({DOTA}-[Phe(4-Cl)][dC][ξPhe(4-NH2)](ξDihydroorotoyl)[dPhe(4-NHCONH2)]KTC[dY]-NH2; disulfide 2-7)
sst2-internalization tested in vitro in HEK-sst2 cells (function) [1]: antagonistic property; also recorded: Antagonist
Calcium release tested in vitro in HEK-sst2 cells (function) [2]: Antagonist
sst2 binding affinity relative to SRIF-28 [3]: three to four-fold greater
tumor to kidney ratio (in words) [8]: excellent tumor to kidney ratio

Structure (SMILES): C[C@@H](O)[C@@H]1NC(=O)[C@H](CCCCN)NC(=O)[C@@H](Cc2ccc(NC(N)=O)cc2)NC(=O)[C@H](Cc2ccc(O)cc2)NC(=O)[C@H](NC(=O)[C@H](Cc2ccc(Cl)cc2)NC(=O)CN2CCN(CC(=O)O)CCN(CC(=O)O)CCN(CC(=O)O)CC2)CSSC[C@@H](C(=O)N[C@@H](Cc2ccc3ccccc3c2)C(N)=O)NC1=O [^111In-labelled Peptide No. 28, metal not drawn] ({DOTA}-[Phe(4-Cl)][dC]Y[dPhe(4-NHCONH2)]KTC[2Nal]-NH2; disulfide 2-7)
tissue uptake at 4 h ([9]; adrenal): 0.21 %ID/g
tissue uptake at 4 h ([9]; blood): 0.19 %ID/g
tissue uptake at 4 h ([9]; bone): 0.16 %ID/g
tissue uptake at 4 h ([9]; heart): 0.12 %ID/g
tissue uptake at 4 h ([9]; liver): 0.88 %ID/g
tissue uptake at 4 h ([9]; muscle): 0.06 %ID/g
tissue uptake at 4 h ([9]; pancreas): 2.41 %ID/g
tissue uptake at 4 h ([9]; pituitary): 0.21 %ID/g
tissue uptake at 4 h ([9]; sst2 tumor): 2.36 %ID/g
biodistribution, kidney ([8]; female, athymic nude, iv, 4 h): 6.95 % IA/g
biodistribution, spleen ([8]; female, athymic nude, iv, 4 h): 0.36 % IA/g

Structure (SMILES): C[C@@H](O)[C@@H]1NC(=O)[C@H](CCCCN)NC(=O)[C@@H](Cc2ccc(NC(N)=O)cc2)NC(=O)[C@H](Cc2ccc(O)cc2)NC(=O)[C@H](NC(=O)[C@H](Cc2ccc(Cl)cc2)NC(=O)CN2CCN(CC(=O)O)CCN(CC(=O)O)CCN(CC(=O)O)CC2)CSSC[C@@H](C(=O)N[C@@H](Cc2ccc3ccccc3c2)C(N)=O)NC1=O [Peptide No. 28, DOTA-Cpa-c[DCys-Tyr-DAph(Cbm)-Lys-Thr-Cys]-2Nal-NH2] ({DOTA}-[Phe(4-Cl)][dC]Y[dPhe(4-NHCONH2)]KTC[2Nal]-NH2; disulfide 2-7)
sst2-internalization tested in vitro in HEK-sst2 cells (function) [1]: Antagonist
Calcium release tested in vitro in HEK-sst2 cells (function) [2]: Antagonist
IC50 ([3]; Table 1, inhibition of radioligand binding to cloned human receptor, read-out: IC50 hSSTR2): ~1.8 nM and 1.8 nM
effect on binding of the SRIF-28 radioligand to SSTR5 ([4]; 100 nM): minimal effects
effect on binding of the SRIF-28 radioligand to SSTR4 ([5]; 100 nM): minimal effects
effect on binding of the SRIF-28 radioligand to SSTR3 ([6]; 100 nM): minimal effects
effect on binding of the SRIF-28 radioligand to SSTR1 ([7]; 100 nM): minimal effects

Further lines, results first:

sst2-internalization tested in vitro in HEK-sst2 cells (function) [1]: Antagonist
Calcium release tested in vitro in HEK-sst2 cells (function) [2]: Antagonist
IC50 [3, 10]: 4.9 ± 1.5 nM
IC50 [4]: 94 ± 34 nM
IC50 [5]: 287 ± 64 nM
IC50 [6]: 50 ± 5.8 nM
IC50 [7]: > 1000 nM
Structure (SMILES): C[C@@H](O)[C@@H]1NC(=O)[C@H](CCCCN)NC(=O)[C@@H](Cc2c[nH]c3ccc(F)cc23)NC(=O)[C@H](Cc2ccc(NC(N)=O)cc2)NC(=O)[C@H](NC(=O)[C@@H](N)Cc2ccc(Cl)cc2)CSSC[C@@H](C(=O)N[C@@H](Cc2ccc3ccccc3c2)C(N)=O)NC1=O [compound 25, H2N-Cpa-c[DCys-Aph(Cbm)-5F-DTrp-Lys-Thr-Cys]-2Nal-NH2] (H-[Phe(4-Cl)][dC][Phe(4-NHCONH2)][dTrp(5-F)]KTC[2Nal]-NH2; disulfide 2-7)

sst2-internalization tested in vitro in HEK-sst2 cells (function) [1]: Antagonist
Calcium release tested in vitro in HEK-sst2 cells (function) [2]: Antagonist
IC50 [3, 10]: 46 ± 13 nM
IC50 [4]: > 1000 nM
IC50 [5]: > 1000 nM
IC50 [6]: 124 ± 53 nM
IC50 [7]: > 1000 nM
Structure (SMILES): C[C@@H](O)[C@@H]1NC(=O)[C@H](CCCCN)NC(=O)[C@@H](Cc2c[nH]c3ccccc23)NC(=O)[C@H](Cc2ccc(NC(N)=O)cc2)NC(=O)[C@H](NC(=O)[C@H](Cc2ccc(Cl)cc2)NC(=O)CCNC(=O)CN2CCN(CC(=O)O)CCN(CC(=O)O)CCN(CC(=O)O)CC2)CSSC[C@@H](C(=O)N[C@@H](Cc2ccc3ccccc3c2)C(N)=O)NC1=O [compound 15, DOTA-βAla-Cpa-c[DCys-Aph(Cbm)-DTrp-Lys-Thr-Cys]-2Nal-NH2]
